The values that follow come from patent US6608086B2, “Dihydropyridines and new uses thereof” (Synaptic Pharmaceutical Corporation, priority 1993, dated 2003).

One assay has as its target T1, L-type calcium channel (Rattus norvegicus, UniProt P22002).
T1 construct: membrane fragments of rat cardiac muscle; from tissue; host or cells: rat cardiac muscle membranes
The assay is described as follows: Competition binding of [3H]nitrendipine to membrane fragments of rat cardiac muscle.

For assay [1], the target named is T2, α1A Human Adrenergic Receptor (Homo sapiens, UniProt P25100).
T2 construct: The entire coding region of α1A (1719 bp); expressed in transfected cells
T2 sequence (P25100 1-572): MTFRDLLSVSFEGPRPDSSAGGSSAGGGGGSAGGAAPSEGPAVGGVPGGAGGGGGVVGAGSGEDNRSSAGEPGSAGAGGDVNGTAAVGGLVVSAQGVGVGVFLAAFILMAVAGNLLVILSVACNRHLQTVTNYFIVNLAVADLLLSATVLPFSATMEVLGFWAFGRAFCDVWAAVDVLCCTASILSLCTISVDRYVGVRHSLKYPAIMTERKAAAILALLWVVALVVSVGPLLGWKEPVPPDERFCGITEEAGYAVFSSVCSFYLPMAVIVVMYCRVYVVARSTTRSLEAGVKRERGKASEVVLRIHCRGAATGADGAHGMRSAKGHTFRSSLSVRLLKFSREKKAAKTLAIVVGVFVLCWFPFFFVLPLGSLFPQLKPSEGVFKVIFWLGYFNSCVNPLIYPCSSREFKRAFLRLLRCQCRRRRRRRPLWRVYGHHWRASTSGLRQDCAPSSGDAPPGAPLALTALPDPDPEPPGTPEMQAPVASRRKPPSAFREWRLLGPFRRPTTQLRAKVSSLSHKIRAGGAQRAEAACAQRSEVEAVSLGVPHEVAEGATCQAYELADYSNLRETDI
The assay is described as follows: Radioligand binding, [3H]prazosin, cloned human α1A adrenergic receptor. The conditions noted are these: pKi alpha-1 1a. The procedure, abridged: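 Membranes from LM(tk−) cells transfected with human α1A were incubated with 0.5 nM [3H]prazosin in 50 mM Tris-HCl, 1 mM MgCl2, 0.1% ascorbic acid, pH 7.5, for 20 min at 37° C. Nonspecific binding was defined with 10 μM phentolamine. Bound ligand was separated by GF/B filtration.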

The target in the next assay is T3, α2C receptor (Homo sapiens, UniProt P18825).
T3 construct: host or cells: LM(tk-) cells, line L-α2C
T3 sequence (P18825 1-462): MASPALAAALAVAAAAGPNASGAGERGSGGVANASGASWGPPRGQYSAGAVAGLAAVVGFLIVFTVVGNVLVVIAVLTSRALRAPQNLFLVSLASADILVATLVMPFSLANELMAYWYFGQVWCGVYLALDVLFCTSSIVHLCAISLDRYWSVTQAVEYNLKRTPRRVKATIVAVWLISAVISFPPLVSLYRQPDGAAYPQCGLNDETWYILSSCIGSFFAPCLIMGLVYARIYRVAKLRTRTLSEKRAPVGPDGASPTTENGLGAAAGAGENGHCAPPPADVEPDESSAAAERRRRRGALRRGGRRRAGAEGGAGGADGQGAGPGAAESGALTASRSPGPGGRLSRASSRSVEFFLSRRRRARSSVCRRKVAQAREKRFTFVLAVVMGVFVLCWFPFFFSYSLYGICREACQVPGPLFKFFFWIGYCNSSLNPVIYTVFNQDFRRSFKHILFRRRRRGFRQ
Kind of assay: Competition binding, [3H]rauwolscine, human α2C receptor. The procedure, abridged: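 Filter-bound [3H]rauwolscine (0.5 nM) was measured after equilibrium competition with test antagonists on lysates of LM(tk−) cells stably transfected with each human α2 subtype. Buffer: 25 mM glycylglycine, pH 7.6 at room temperature; 10 μM phentolamine gave nonspecific binding.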

[2] abbreviates: [3H]nitrendipine, rat cardiac muscle membranes, SEM and n in lines below, read-out: pKi Ca (converted).
[3] abbreviates: [3H]prazosin, cloned human receptor in LM(tk-) cell membranes, SEM and n in lines below.
The mark [4] stands for this setting: [3H]rauwolscine, LM(tk-) cell line L-α2C, SEM and n in lines below, read-out: pKi alpha-2 2c (converted).
The mark [5] stands for this setting: [3H]nitrendipine, rat cardiac muscle membrane fragments, L-type calcium channel, read-out: pKi Ca (converted).
Where [6] appears, read: [3H]prazosin, cloned human α1A receptor, LM(tk−) cell membranes.
Setting [7] is: pKi alpha-2 2c, [3H]rauwolscine, human α2C receptor, LM(tk−) cells.
[8] abbreviates: [3H]rauwolscine, human α2C receptor, LM(tk−) cells, read-out: pKi alpha-2 2c (converted).

Structures can show the parent of a compound that is named as a salt. Where two headings read alike, the source gives them in different places.

T1 sequence (P22002 whole entry, other chains not shown, the tested form may be a part): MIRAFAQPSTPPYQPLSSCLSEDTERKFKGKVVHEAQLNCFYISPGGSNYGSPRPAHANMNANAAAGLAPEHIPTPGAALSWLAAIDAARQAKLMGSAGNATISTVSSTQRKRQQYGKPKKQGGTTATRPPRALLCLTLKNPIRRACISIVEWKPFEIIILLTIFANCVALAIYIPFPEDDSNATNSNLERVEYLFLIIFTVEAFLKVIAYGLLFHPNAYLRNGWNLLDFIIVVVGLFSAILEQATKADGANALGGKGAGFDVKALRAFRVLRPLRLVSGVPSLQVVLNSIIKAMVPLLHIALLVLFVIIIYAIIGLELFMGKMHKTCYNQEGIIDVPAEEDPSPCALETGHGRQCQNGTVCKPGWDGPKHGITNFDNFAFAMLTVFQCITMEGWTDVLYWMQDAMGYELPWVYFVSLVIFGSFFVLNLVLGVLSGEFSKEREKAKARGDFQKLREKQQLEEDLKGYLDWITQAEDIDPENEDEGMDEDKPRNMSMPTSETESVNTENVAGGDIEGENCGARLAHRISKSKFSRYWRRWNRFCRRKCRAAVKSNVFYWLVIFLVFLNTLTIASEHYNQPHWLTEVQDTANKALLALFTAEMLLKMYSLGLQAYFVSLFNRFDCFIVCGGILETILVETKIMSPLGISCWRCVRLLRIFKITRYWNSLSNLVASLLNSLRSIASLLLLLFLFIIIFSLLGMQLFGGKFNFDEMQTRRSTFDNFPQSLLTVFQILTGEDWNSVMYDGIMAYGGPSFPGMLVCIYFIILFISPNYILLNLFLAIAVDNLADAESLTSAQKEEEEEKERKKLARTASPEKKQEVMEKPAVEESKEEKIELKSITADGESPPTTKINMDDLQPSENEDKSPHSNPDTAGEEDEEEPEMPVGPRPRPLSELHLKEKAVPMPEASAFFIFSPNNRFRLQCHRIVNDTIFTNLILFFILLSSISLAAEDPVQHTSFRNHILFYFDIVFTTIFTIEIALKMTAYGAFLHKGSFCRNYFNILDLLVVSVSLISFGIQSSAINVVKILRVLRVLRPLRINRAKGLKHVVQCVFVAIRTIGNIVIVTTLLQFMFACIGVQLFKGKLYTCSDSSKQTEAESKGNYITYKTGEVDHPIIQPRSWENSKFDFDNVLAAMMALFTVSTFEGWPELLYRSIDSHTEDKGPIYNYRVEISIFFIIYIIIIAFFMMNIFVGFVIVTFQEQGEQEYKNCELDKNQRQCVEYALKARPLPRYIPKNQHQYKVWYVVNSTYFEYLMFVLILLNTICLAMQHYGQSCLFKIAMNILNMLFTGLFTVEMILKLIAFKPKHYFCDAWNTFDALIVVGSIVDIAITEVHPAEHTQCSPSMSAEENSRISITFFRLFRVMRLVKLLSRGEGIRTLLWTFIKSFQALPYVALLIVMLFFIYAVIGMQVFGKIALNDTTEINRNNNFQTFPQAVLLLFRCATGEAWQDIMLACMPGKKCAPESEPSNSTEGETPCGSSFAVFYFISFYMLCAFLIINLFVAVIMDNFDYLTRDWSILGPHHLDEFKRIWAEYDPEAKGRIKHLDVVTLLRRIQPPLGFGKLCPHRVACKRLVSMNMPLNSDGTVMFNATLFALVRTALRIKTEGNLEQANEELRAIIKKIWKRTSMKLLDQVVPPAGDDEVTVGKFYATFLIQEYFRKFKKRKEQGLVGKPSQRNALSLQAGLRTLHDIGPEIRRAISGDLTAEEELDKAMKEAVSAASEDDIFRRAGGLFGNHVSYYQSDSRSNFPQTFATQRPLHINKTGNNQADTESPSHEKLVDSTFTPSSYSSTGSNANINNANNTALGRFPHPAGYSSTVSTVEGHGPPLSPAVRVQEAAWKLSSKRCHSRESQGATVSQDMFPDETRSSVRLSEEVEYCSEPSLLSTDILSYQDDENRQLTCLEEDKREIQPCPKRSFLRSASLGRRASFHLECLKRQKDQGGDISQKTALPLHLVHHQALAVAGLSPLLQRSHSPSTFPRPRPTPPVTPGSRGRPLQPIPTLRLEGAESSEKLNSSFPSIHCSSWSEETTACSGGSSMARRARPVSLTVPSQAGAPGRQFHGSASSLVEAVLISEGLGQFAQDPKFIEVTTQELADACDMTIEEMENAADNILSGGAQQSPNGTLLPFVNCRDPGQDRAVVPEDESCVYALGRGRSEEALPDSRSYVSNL
T1 sequence (P54290 25-944 partner limits assumed, other chains not shown): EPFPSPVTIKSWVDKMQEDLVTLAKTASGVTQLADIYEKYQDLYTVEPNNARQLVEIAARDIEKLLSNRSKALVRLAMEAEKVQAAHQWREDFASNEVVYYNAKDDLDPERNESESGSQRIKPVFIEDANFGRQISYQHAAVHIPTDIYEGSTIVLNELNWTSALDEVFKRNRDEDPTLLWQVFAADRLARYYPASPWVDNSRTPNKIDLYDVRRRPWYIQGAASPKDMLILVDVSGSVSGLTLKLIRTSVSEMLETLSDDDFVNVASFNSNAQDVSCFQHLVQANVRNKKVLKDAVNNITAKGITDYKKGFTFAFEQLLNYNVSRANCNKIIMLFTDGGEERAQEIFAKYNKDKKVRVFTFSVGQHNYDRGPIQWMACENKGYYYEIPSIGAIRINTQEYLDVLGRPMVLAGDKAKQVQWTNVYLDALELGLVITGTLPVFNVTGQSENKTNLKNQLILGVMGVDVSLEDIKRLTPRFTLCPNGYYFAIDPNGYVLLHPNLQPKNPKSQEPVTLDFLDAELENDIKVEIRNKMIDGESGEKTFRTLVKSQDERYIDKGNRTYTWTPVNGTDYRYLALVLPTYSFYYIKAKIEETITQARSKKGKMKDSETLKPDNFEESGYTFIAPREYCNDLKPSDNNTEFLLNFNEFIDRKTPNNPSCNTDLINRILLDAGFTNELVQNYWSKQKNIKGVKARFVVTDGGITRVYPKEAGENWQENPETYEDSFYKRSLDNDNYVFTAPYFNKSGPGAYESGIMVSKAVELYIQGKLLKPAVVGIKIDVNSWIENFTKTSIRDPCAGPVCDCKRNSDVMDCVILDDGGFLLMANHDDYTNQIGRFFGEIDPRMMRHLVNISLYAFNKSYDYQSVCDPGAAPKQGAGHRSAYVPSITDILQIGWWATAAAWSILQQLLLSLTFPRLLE
T1 sequence (P54290 945-1091 partner limits assumed, other chains not shown): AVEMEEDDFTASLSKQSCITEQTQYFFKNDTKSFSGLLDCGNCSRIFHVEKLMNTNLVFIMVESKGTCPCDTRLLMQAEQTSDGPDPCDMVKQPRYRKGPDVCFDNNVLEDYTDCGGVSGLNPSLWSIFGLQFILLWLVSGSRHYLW

Regarding `COC(=O)C1=C(C)NC(C)=C(C(=O)NCCCN2CCC(c3ccccc3)(c3ccccc3)CC2)C1Cc1ccccc1` (stereo not drawn) [Example 8, 4-Benzyl-1,4-dihydro-3-methoxycarbonyl-2,6-dimethyl-5-(N-(3-(4,4-diphenylpiperidin-1-yl)propyl)carboxamido)pyridine], the Ki is 11.5 µM at L-type calcium channel (setting [2]), 380 nM in assay [1] (setting [3]) and 339 nM at α2C receptor (setting [4]).

Regarding `COC(=O)C1=C(C)NC(C)=C(C(=O)NCCCN2CCC(c3ccccc3)(c3ccccc3)CC2)C1c1ccc([N+](=O)[O-])c(C)c1` (stereo not drawn) [Example 28], the figures for the Ki (on L-type calcium channel (setting [2]); in assay [1] (setting [3]); at α2C receptor (setting [4])) were 17.4 µM, 437 nM and 631 nM, respectively.

`CC1=C(C(=O)NCCCN2CCC(c3ccccc3)(c3ccccc3)CC2)C(c2ccc([N+](=O)[O-])cc2)c2c([nH]c(=O)[nH]c2=O)N1` (stereo not drawn) [Example 64]: the Ki was 97.7 µM on L-type calcium channel (setting [2]), 490 nM in assay [1] (setting [3]) and 479 nM on α2C receptor (setting [4]).

On to `CCC1=C(C(N)=O)C(c2ccc([N+](=O)[O-])cc2)C(C(=O)NCCCN2CCC(C#N)(c3ccccc3)CC2)=C(CC)N1` (single isomer, unassigned; (+)) [(+)-102], for which the Ki at L-type calcium channel (setting [5]) is 1000 µM; in assay [1] (setting [6]), 2880 nM; at α2C receptor (setting [7]) it was 3310 nM.

As for `COc1ccc(C2(c3ccccc3)CCN(CCCNC(=O)C3=C(C)NC(C)=C(C(N)=O)C3c3ccc([N+](=O)[O-])cc3)CC2)cc1` (stereo not drawn) [Example 98, 5-Carboxamido-1,4-dihydro-3-{N-[3-(4-(4-methoxyphenyl)-4-phenylpiperidin-1-yl)propyl]}carboxamido-2,6-dimethyl-4-(4-nitrophenyl)pyridine hydrochloride], the Ki is 1000 µM at L-type calcium channel (setting [5]), 1100 nM in assay [1] (setting [6]) and 427 nM at α2C receptor (setting [8]).

In the case of `CC1=C(C(N)=O)C(c2ccc(S(C)(=O)=O)cc2)C(C(=O)NCCCN2CCC(c3ccccc3)(c3ccccc3)CC2)=C(C)N1` (stereo not drawn) [Example 115, 5-Carboxamido-1,4-4-dihydro-4-(4-methanesufonylphenyl)-2,6-dimethyl-3-(N-(3-(4,4-diphenylpiperidin-1-yl)propyl)carboxamido)-pyridine], the Ki at L-type calcium channel (setting [5]) was 1000 µM; in assay [1] (setting [6]), 2000 nM; on α2C receptor (setting [8]) it was 2290 nM.

With `CC1=C(C(N)=O)C(c2cccc([N+](=O)[O-])c2)C(C(=O)NCCCN2CCC(c3ccccc3)(c3ccccc3)CC2)=C(C)N1` (stereo not drawn) [Example 61, 5-Carboxamido-1,4-dihydro-2,6-dimethyl-4-(3-nitrophenyl)-3-{N-[3-(4,4-diphenylpiperidin-1-yl)propyl]}carboxamidopyridine], the Ki on L-type calcium channel (setting [2]) is 10.2 µM; in assay [1] (setting [3]), 851 nM; at α2C receptor (setting [4]) it was 479 nM.

Turning to `CCC1=C(C(N)=O)C(c2ccc([N+](=O)[O-])cc2)C(C(=O)NCCCN2CCC(C#N)(c3ccccc3)CC2)=C(CC)N1` (single isomer, unassigned; (-)) [(−)-102], the Ki was 0.55 µM at L-type calcium channel (setting [5]), 6760 nM in assay [1] (setting [6]) and 1050 nM on α2C receptor (setting [7]).

As for `COC(=O)C1=C(C)NC(C)=C(C(=O)NCCCN2CCC(c3ccccc3)(c3ccccc3)CC2)C1c1ccc(Br)cc1` (stereo not drawn) [Example 15, 4-(4-Bromophenyl)-1,4-dihydro-3-methoxycarbonyl-2,6-dimethyl-5-(N-(3-(4,4-diphenylpiperidin-1-yl)propyl)carboxamido)pyridine], the Ki is 7.24 µM at L-type calcium channel (pKi Ca), 417 nM in assay [1] and 1120 nM on α2C receptor (pKi alpha-2 2c).

`CCC1=C(C(N)=O)C(c2ccc([N+](=O)[O-])cc2)C(C(=O)NCCCN2CCC(C)(c3ccccc3)CC2)=C(CC)N1` (stereo not drawn) [Example 106, 5-Carboxamido-2,6-diethyl-1,4-dihydro-3-{N-[3-(4-Methyl-4-phenylpiperidin-1-yl)propyl]}carboxamido-4-(4-nitrophenyl)pyridine hydrochloride hydrate]: the Ki at L-type calcium channel (setting [5]) is 1000 µM; in assay [1] (setting [6]), 2400 nM; at α2C receptor (setting [8]) it was 295 nM.

`COC(=O)C1=C(C)NC(C)=C(C(=O)NCCN2CCC(c3ccccc3)(c3ccccc3)CC2)C1c1ccc([N+](=O)[O-])cc1` (stereo not drawn) [Example 52, 1,4-Dihydro-3-methoxycarbonyl-2,6-dimethyl-4-(4-nitrophenyl)-5-{N-[2-(4,4-diphenylpiperidin-1-yl)ethyl]}carboxamidopyridine hydrochloride hemihydrate]: the Ki at L-type calcium channel (pKi Ca) is 5.13 µM; in assay [1], 1150 nM; on α2C receptor (pKi alpha-2 2c) it was 263 nM.

With `COc1cccc(C2C(C(N)=O)=C(C)NC(C)=C2C(=O)NCCCN2CCC(c3ccccc3)(c3ccccc3)CC2)c1` (stereo not drawn) [Example 117, 5-Carboxamido-1,4-dihydro-4-(3-Methoxyphenyl)-2,6-dimethyl-3-(N-(3-(4,4-diphenylpiperidin-1-yl)propyl)carboxamido)-pyridine], the values for the Ki (at L-type calcium channel (setting [5]); in assay [1] (setting [6]); on α2C receptor (setting [8])) were 1000 µM, 2090 nM and 759 nM, respectively.

`CCC1=C(C(N)=O)C(c2ccc([N+](=O)[O-])cc2)C(C(=O)NCCCN2CCC(O)(c3ccccc3)CC2)=C(CC)N1` (stereo not drawn) [Example 100, 5-Carboxamido-2,6-diethyl-1,4-dihydro-3-{N-(3-(4-hydroxy-4-phenylpiperidin-1-yl)propyl]}carboxamido-4-(4-nitrophenyl)pyridine hydrochloride hydrate]: the values for the Ki (on L-type calcium channel (setting [5]); in assay [1] (setting [6]); on α2C receptor (setting [8])) were 1000 µM, 4900 nM and 1780 nM, respectively.

On to `COC(=O)C1=C(C)NC(C)=C(C(=O)NCCCN2CCC(c3ccccc3)(c3ccccc3)CC2)C1c1ccc(C(C)C)cc1` (stereo not drawn) [Example 18, 1,4-Dihydro-4-(4-isopropylphenyl)-3-methoxycarbonyl-2,6-dimethyl-5-(N-(3-(4,4-diphenylpiperidin-1-yl)propyl)carboxamido)pyridine], for which the Ki on L-type calcium channel (pKi Ca) was 0.162 µM; in assay [1], 891 nM; on α2C receptor (pKi alpha-2 2c), 933 nM.

Consider `COC(=O)C1=C(C)NC(C)=C(C(=O)NCCCN2CCC(c3ccccc3)(c3ccccc3)CC2)C1c1ccc(C)cc1` (stereo not drawn) [Example 19, 1,4-Dihydro-3-methoxycarbonyl-1,6-dimethyl-4-(4-methylphenyl)-5-(N-(3-(4,4-diphenylpiperidin-1-yl)propyl)carboxamido)pyridine], for which the Ki at L-type calcium channel (pKi Ca) is 7.41 µM; in assay [1], 316 nM; on α2C receptor (pKi alpha-2 2c), 417 nM.

As to `CC1=C(C(=O)NCCCN2CCC(c3ccccc3)(c3ccccc3)CC2)C(c2ccc([N+](=O)[O-])cc2)C(C(=O)OCCC#N)=C(C)N1` (stereo not drawn) [Example 160], the Ki on L-type calcium channel (setting [5]) is 15.5 µM; in assay [1] (setting [6]) it was 251 nM; on α2C receptor (setting [8]), 155 nM.

Consider `CCC1=C(C(N)=O)C(c2ccc(S(C)(=O)=O)cc2)C(C(=O)NCCCN2CCC(c3ccccc3)(c3ccccc3)CC2)=C(C)N1` (stereo not drawn) [Example 118, 3-Carboxamido-2-ethyl-1,4-dihydro-4-(4-methanesulfonylphenyl)-6-methyl-3-(N-(3-(4,4-diphenylpiperidin-1-yl)propyl)carboxyamido)-pyridine], for which the results for the Ki (at L-type calcium channel (setting [5]); in assay [1] (setting [6]); on α2C receptor (setting [7])) were 1000 µM, 2190 nM and 2240 nM, respectively.

In the case of `COC(=O)C1=C(C)NC(C)=C(C(=O)NCCCN2CCC(c3ccccc3)(c3ccccc3)CC2)C1c1ccc(OC)cc1` (stereo not drawn) [Example 21, 1,4-Dihydro-3-methoxycarbonyl-4-(4-Methoxyphenyl)-2,6-dimethyl-5-(N-(3-(4,4-diphenylpiperidin-1-yl)propyl)carboxamido)pyridine], the figures for the Ki (at L-type calcium channel (pKi Ca); in assay [1]; on α2C receptor (pKi alpha-2 2c)) were 1 µM, 490 nM and 776 nM, respectively.
